Reference: patent US20160183526A1, “FUNGICIDAL COMPOSITIONS” (Dow AgroSciences LLC, priority 2014, published 2016)

Columns and labels:
Assay type in all cases: physicochemical
[1] = Approximate relative solubility of active ingredients in organic solvents at ambient temperature
Experimental: The approximate solubility of Compound A was determined by mixing a known mass of the active ingredient with an increasing mass of each solvent at ambient temperature. […] The solubility of Compound A in the solvents used in this screening procedure was generally classified within the following concentration ranges: […]

[2] = Solubility of a mixture of Compound A and prothioconazole in benzyl acetate/AMD810 blends at 10° C. (HPLC); details: both actives saturated
Experimental: A study of the Compound A and prothioconazole solubility in blends of benzyl acetate/AMD810 was conducted. To each solvent blend both actives were added until each was saturated and the resulting mixtures were then stored at 10° C. until equilibrium was obtained. Aliquots of the supernatant layer were taken from each sample, filtered (0.45 μm mesh) and analyzed by HPLC to determine the solution concentration of each active in the blends.

[3] = Solubility of Compound A and prothioconazole in benzyl acetate/AMD810/cyclohexanone blends at 10° C.; details: one week
Experimental: A total of 20 g of each solvent blend was prepared per sample. For example, one of the blends (Blend 4) was prepared by combining cyclohexanone 0.2 (4 g), benzyl acetate 0.2 (4 g) and AMD810 0.6 (12 g). To Blend 4 were added amounts of Compound A and prothioconazole technical active ingredients to achieve saturation concentrations of each. The samples were then stored at 10° C. for one week and then were analysed for soluble active ingredient content.

[4] = Accelerated storage stability of Compound A in liquid compositions, 2 weeks at 54° C. (HPLC); details: 2 weeks 54° C.
Experimental: The test compositions were prepared in a manner similar to that described in Example 1 using one or more of Compound A, prothioconazole, pyraclostrobin, benzyl acetate, and AMD 810, and a third solvent chosen from cyclohexanone, acetophenone, 2-heptanone, 2-heptanol, oleyl alcohol or 2-ethylhexanol.

[5] = Approximate relative solubility of active ingredients in organic solvents at ambient temperature; remark: listed apart in the source

## COc1ccnc(C(=O)N[C@H]2COC(=O)[C@H](Cc3ccccc3)[C@@H](OC(=O)C(C)C)[C@H](C)OC2=O)c1OCOC(=O)C(C)C [Compound A, propanoic acid, 2-methyl-, [[4-methoxy-2-[[[(3S,7R,8R,9S)-9-methyl-8-(2-methyl-1-oxopropoxy)-2,6-dioxo-7-(phenylmethyl)-1,5-dioxonan-3-yl]amino]carbonyl]-3-pyridinyl]oxy]methyl ester]
[1]; 0.2 g Compound A mixed with 1.38 g cyclohexanone
  Compound A content of clear solution: 12.6 % w/w
[1]; in 2-ethylhexanol
  Relative Solubility of Compound A: Very Low (<3.0)
[1]; in Alkyl naphthalene mixture
  Relative Solubility of Compound A: Very Low (<3.0)
[1]; in Benzyl acetate
  Relative Solubility of Compound A: High (>8.4)
[1]; in Cyclohexanone
  Relative Solubility of Compound A: High (>8.4)
[1]; in Isoparaffin
  Relative Solubility of Compound A: Very Low (<3.0)
[1]; in Isopropyl benzoate
  Relative Solubility of Compound A: Medium (8.4 to 5.6)
[1]; in Methyl oleate
  Relative Solubility of Compound A: Very Low (<3.0)
[1]; in Methyl-5-(Dimethylamino)-2-Methyl-5-Oxopentanoate
  Relative Solubility of Compound A: High (>8.4)
[1]; in Pentanedioic acid, 2-methyl-1, 5-dimethyl ester
  Relative Solubility of Compound A: Medium (8.4 to 5.6)
[1]; in Tributoxyethyl phosphate
  Relative Solubility of Compound A: Low (5.6 to 3.0)
[2]; benzyl acetate 0 wt % in blend with AMD810
  Compound A Solubility at 10° C.: 3.3 % w/w
[2]; benzyl acetate 20 wt % in blend with AMD810
  Compound A Solubility at 10° C.: 4.3 % w/w
[2]; benzyl acetate 40 wt % in blend with AMD810
  Compound A Solubility at 10° C.: 6.5 % w/w
[2]; benzyl acetate 60 wt % in blend with AMD810
  Compound A Solubility at 10° C.: 11.0 % w/w
[2]; benzyl acetate 80 wt % in blend with AMD810
  Compound A Solubility at 10° C.: 12.0 % w/w
[2]; benzyl acetate 100 wt % in blend with AMD810
  Compound A Solubility at 10° C.: 14.3 % w/w
[3]; Blend 1: cyclohexanone 0/benzyl acetate 0/AMD810 1 (weight fraction)
  Compound A Solubility @ 10° C.: 3.3 % w/w
[3]; Blend 2: cyclohexanone 0/benzyl acetate 0.2/AMD810 0.8 (weight fraction)
  Compound A Solubility @ 10° C.: 4.3 % w/w
[3]; Blend 3: cyclohexanone 0.2/benzyl acetate 0/AMD810 0.8 (weight fraction)
  Compound A Solubility @ 10° C.: 4.5 % w/w
[3]; Blend 4: cyclohexanone 0.2/benzyl acetate 0.2/AMD810 0.6 (weight fraction)
  Compound A Solubility @ 10° C.: 6.2 % w/w
[3]; Blend 5: cyclohexanone 0/benzyl acetate 0.4/AMD810 0.6 (weight fraction)
  Compound A Solubility @ 10° C.: 6.5 % w/w
[3]; Blend 6: cyclohexanone 0.2/benzyl acetate 0.4/AMD810 0.4 (weight fraction)
  Compound A Solubility @ 10° C.: 10.5 % w/w
[3]; Blend 7: cyclohexanone 0/benzyl acetate 0.6/AMD810 0.4 (weight fraction)
  Compound A Solubility @ 10° C.: 11 % w/w
[3]; Blend 8: cyclohexanone 0/benzyl acetate 0.8/AMD810 0.2 (weight fraction)
  Compound A Solubility @ 10° C.: 12 % w/w
[3]; Blend 10: cyclohexanone 0.2/benzyl acetate 0.6/AMD810 0.2 (weight fraction)
  Compound A Solubility @ 10° C.: 13.6 % w/w
[3]; Blend 11: cyclohexanone 0/benzyl acetate 1/AMD810 0 (weight fraction)
  Compound A Solubility @ 10° C.: 14.3 % w/w
[3]; Blend 12: cyclohexanone 0.2/benzyl acetate 0.8/AMD810 0 (weight fraction)
  Compound A Solubility @ 10° C.: 15.2 % w/w
[4]; wt %: Compound A 3.4, AMD 810 96.0
  Compound A after Storage (% retention): 49^ % retention
[4]; wt %: Compound A 4.1, pyraclostrobin 5.2, benzyl acetate 37.0, AMD 810 20.0, cyclohexanone 8.2, emulsifier blend 14.7
  Compound A after Storage (% retention): 93^2 % retention
[4]; wt %: Compound A 4.9, benzyl acetate 94.1
  Compound A after Storage (% retention): 85^ % retention
[4]; wt %: Compound A 4.9, prothioconazole 7.4, benzyl acetate 46.8, AMD 810 25.2, no third solvent, emulsifier blend 14.7
  Compound A after Storage (% retention): 91^2 % retention
[4]; wt %: Compound A 4.9, pyraclostrobin 5.0, benzyl acetate 48.4, AMD 810 26.0, no third solvent, emulsifier blend 14.7
  Compound A after Storage (% retention): 92^2 % retention
[4]; wt %: Compound A 4.9, pyraclostrobin 6.3, benzyl acetate 41.2, AMD 810 22.2, cyclohexanone 9.8
  Compound A after Storage (% retention): 98^ % retention
[4]; wt %: Compound A 4.9, pyraclostrobin 6.3, benzyl acetate 44.4, AMD 810 23.9, 2-ethyl hexanol 4.9, emulsifier blend 14.7
  Compound A after Storage (% retention): 96^2 % retention
[4]; wt %: Compound A 4.9, pyraclostrobin 6.3, benzyl acetate 44.4, AMD 810 23.9, 2-heptanol 4.9, emulsifier blend 14.7
  Compound A after Storage (% retention): 94^2 % retention
[4]; wt %: Compound A 4.9, pyraclostrobin 6.3, benzyl acetate 44.4, AMD 810 23.9, 2-heptanone 4.9, emulsifier blend 14.7
  Compound A after Storage (% retention): 93^2 % retention
[4]; wt %: Compound A 4.9, pyraclostrobin 6.3, benzyl acetate 44.4, AMD 810 23.9, acetophenone 4.9, emulsifier blend 14.7
  Compound A after Storage (% retention): 94^2 % retention
[4]; wt %: Compound A 4.9, pyraclostrobin 6.3, benzyl acetate 44.4, AMD 810 23.9, oleyl alcohol 4.9, emulsifier blend 14.7
  Compound A after Storage (% retention): 92^2 % retention
[4]; wt %: Compound A 5.0, pyraclostrobin 6.4, benzyl acetate 40.9, AMD 810 22.0, 2-ethyl hexanol 10.0
  Compound A after Storage (% retention): 95^ % retention
[4]; wt %: Compound A 7.7, pyraclostrobin 9.8, benzyl acetate 37.1, AMD 810 20.0, cyclohexanone 9.6
  Compound A after Storage (% retention): 97^ % retention
[4]; wt %: Compound A 7.8, pyraclostrobin 9.9, benzyl acetate 36.7, AMD 810 19.8, 2-ethyl hexanol 9.7
  Compound A after Storage (% retention): 97^ % retention
[4]; wt %: Compound A 12.0, cyclohexanone 85.7
  Compound A after Storage (% retention): 96^ % retention
[5]; in 2-ethylhexyl benzoate
  Relative Solubility of Compound A: Very Low (<3.0)
[5]; in 2-ethylhexyl lactate
  Relative Solubility of Compound A: Very Low (<3.0)
[5]; in 2-heptanone
  Relative Solubility of Compound A: Medium (8.4 to 5.6)
[5]; in Benzyl alcohol
  Relative Solubility of Compound A: High (>8.4)
[5]; in Butyl benzoate
  Relative Solubility of Compound A: Medium (8.4 to 5.6)
[5]; in Butyl lactate
  Relative Solubility of Compound A: Medium (8.4 to 5.6)
[5]; in Butylene carbonate
  Relative Solubility of Compound A: Very Low (<3.0)
[5]; in Di-n-butyl carbonate
  Relative Solubility of Compound A: Very Low (<3.0)
[5]; in Diethylene glycol monoethyl ether
  Relative Solubility of Compound A: Low (5.6 to 3.0)
[5]; in Ethyl Diglycol Acetate
  Relative Solubility of Compound A: Low (5.6 to 3.0)
[5]; in Methyl salicylate
  Relative Solubility of Compound A: High (>8.4)
[5]; in N,N dimethyl fatty acid amides
  Relative Solubility of Compound A: Low (5.6 to 3.0)
[5]; in N-formyl morpholine and propylene carbonate
  Relative Solubility of Compound A: High (>8.4)
[5]; in Polyethylene glycol
  Relative Solubility of Compound A: Very Low (<3.0)
[5]; in Polypropylene glycol
  Relative Solubility of Compound A: Very Low (<3.0)
[5]; in Propylene carbonate
  Relative Solubility of Compound A: Very Low (<3.0)
[5]; in Soybean oil
  Relative Solubility of Compound A: Very Low (<3.0)
[5]; in Sulfolane
  Relative Solubility of Compound A: High (>8.4)
[5]; in dimethyl esters of adipic, glutaric and succinic acids
  Relative Solubility of Compound A: Low (5.6 to 3.0)
